Test results as given in patent publication USRE48253E1, “Methotrexate adjuvants to reduce toxicity and methods for using the same” (Tosk, Inc., priority 2008, dated 2020).

Tested on: C57BL/6 mice
Test: Mouse Study I: protection from MTX-induced weight loss (LPS/MTX model)
Type: in vivo
Details: 10 or 30 mg/kg ip 3 hr before and after MTX; LPS+MTX treated mice
Protocol: C57BL/6 mice (10 animals/treatment group) were dosed on Day 1 with LPS (5 μg, i.p.). On Day 2, the animals were treated with 200 mg/kg MTX+10 or 30 mg/kg TK-112690 3 hr before and 3 hr after the MTX treatment. On Day 3, the animals were dosed MTX 100 mg/kg+10 or 30 mg/kg TK±3 hr. On day 8, the Day 8-Day 1 weight was determined and results subject to ANOVA. Group 1=saline alone, Group 2=MTX alone, Group 3=LPS alone, Group 4=MTX+LPS, Group 5=10 mg/kg TK-112690+MTX+LPS or Group 6=30 mg/kg TK-112690+MTX+LPS.
This mouse model is modified from a published procedure (de Koning et al., Int Immunol 18: 941 (2006)). Mice are treated on day one with a single intraperitoneal (ip) dose of lipopolysaccharide (LPS), followed by two consecutive days with 200 and 100 mg/kg ip methotrexate, respectively. Controls include saline alone for days 1, 2, and 3, saline on day 1 plus MTX on days 2 and 3 and LPS on day one with saline injection on days 2 and 3. Experimental groups are given LPS on day one and 10 or 30 mg/kg, TK-112690, a representative 2,2′-anhydropyrimidine test article, ip 3 hours before, and 3 hours after, methotrexate injection on days 2 and 3. Animal weights are measured every day after the first injection with experiment termination five days after the second methotrexate injection (day 8). Weight loss is representative of MTX-induced toxicity, and one aspect of MTX-induced mucositis. […]

## Cc1cn2c(nc1=O)O[C@H]1[C@H](O)[C@@H](CO)O[C@H]12 [TK-112690, 2,2′-anhydro-5-methyluridine]
  protection from MTX-induced weight loss (Day 8-Day 1 weight): highly significant
